Results as given in ChEMBL document CHEMBL3392963, “Piperazine derivatives: synthesis, inhibition of the Mycobacterium tuberculosis enoyl-acyl carrier protein reductase and SAR studies” (Eur J Med Chem, 2015).
Values after ≈ are worked out from the molar mass of the structure shown. Active and inactive are the calls of the source. No cut-off for these calls is given here.

Key:
[1] = molecular target: T1, Enoyl-[acyl-carrier-protein] reductase [NADH] (Mycobacterium tuberculosis, UniProt P9WGR1); experiment: Inhibition of Mycobacterium tuberculosis recombinant InhA assessed as NADH oxidation to NAD+ using 2-trans-dodecenoyl-CoA substrate by UV/visible spectrophotometry
T1 sequence (P9WGR1 whole entry): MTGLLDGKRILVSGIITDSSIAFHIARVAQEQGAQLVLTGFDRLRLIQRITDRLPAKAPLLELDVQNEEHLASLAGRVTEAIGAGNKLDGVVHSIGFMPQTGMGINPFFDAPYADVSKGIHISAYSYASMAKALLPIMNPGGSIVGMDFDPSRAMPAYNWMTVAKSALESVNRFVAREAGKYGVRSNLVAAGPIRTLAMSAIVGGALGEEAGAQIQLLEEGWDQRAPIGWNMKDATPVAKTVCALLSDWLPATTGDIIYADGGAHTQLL

[2] = molecular target: T2, Enoyl-[acyl-carrier-protein] reductase [NADH] (Mycobacterium tuberculosis) (UniProt P9WGR1)
T2 sequence (whole entry): T1 sequence (P9WGR1 whole entry)
Description: Uncompetitive inhibition of Mycobacterium tuberculosis recombinant InhA assessed as inhibitory dissociation constant for the enzyme-substrate-inhibitor complex by measuring NADH oxidation to NAD+ using fixed 2-trans-dodecenoyl-CoA substrate and varying NADH levels by UV/visible spectrophotometry

[3] = molecular target: T2, Enoyl-[acyl-carrier-protein] reductase [NADH] (Mycobacterium tuberculosis); remark: listed apart in the source
Description: Inhibition of Mycobacterium tuberculosis recombinant InhA assessed as NADH oxidation to NAD+ at 0.2 uM using 2-trans-dodecenoyl-CoA substrate measured up to 30 mins by UV/visible spectrophotometry

[4] = molecular target: T2, Enoyl-[acyl-carrier-protein] reductase [NADH] (Mycobacterium tuberculosis); remark: listed apart in the source
Description: Non-competitive inhibition of Mycobacterium tuberculosis recombinant InhA assessed as inhibitory dissociation constant for the enzyme-inhibitor complex by measuring NADH oxidation to NAD+ using varying 2-trans-dodecenoyl-CoA substrate and fixed NADH levels by UV/visible spectrophotometry

[5] = molecular target: T2, Enoyl-[acyl-carrier-protein] reductase [NADH] (Mycobacterium tuberculosis); remark: listed apart in the source
Description: Non-competitive inhibition of Mycobacterium tuberculosis recombinant InhA assessed as inhibitory dissociation constant for the enzyme-substrate-inhibitor complex by measuring NADH oxidation to NAD+ using varying 2-trans-dodecenoyl-CoA substrate and fixed NADH levels by UV/visible spectrophotometry

[6] = test system: Mycobacterium tuberculosis; experiment: Antimycobacterial activity against Mycobacterium tuberculosis H37Rv assessed as inhibition of mycobacterial growth after 7 days by REMA method; details: 168 h
[7] = molecular target: T2, Enoyl-[acyl-carrier-protein] reductase [NADH] (Mycobacterium tuberculosis); remark: listed apart in the source
Description: Competitive inhibition of Mycobacterium tuberculosis recombinant InhA assessed as inhibitory dissociation constant for the enzyme-inhibitor complex by measuring NADH oxidation to NAD+ using varying 2-trans-dodecenoyl-CoA substrate and fixed NADH levels by UV/visible spectrophotometry

## O=C(/C=C/c1ccccc1)N1CCN(C2c3ccccc3-c3ccccc32)CC1
[1]
  IC50: > 50 µM

## COc1ccc(C(=O)N2CCN(C3c4ccccc4-c4ccccc43)CC2)cc1
[2]
  Kii: 1.95 µM
[1]
  IC50: 2.9 µM
[3]
  TDI: inactive
[4]
  Kis: 1.6 µM
[5]
  Kii: 7.22 µM

## O=C(c1cccc(F)c1)N1CCN(C2c3ccccc3-c3ccccc32)CC1
[2]
  Kii: 0.147 µM
[1]
  IC50: 0.24 µM
[3]
  TDI: inactive
[6]
  MIC: > 16.1 µM
[7]
  Kis: 0.118 µM

## Cc1cccc(C(=O)N2CCN(C3c4ccccc4-c4ccccc43)CC2)c1
[2]
  Kii: 0.185 µM
[1]
  IC50: 0.25 µM
[3]
  TDI: inactive
[4]
  Kis: 0.162 µM
[6]
  MIC: > 16.2 µM
[5]
  Kii: 0.348 µM

## O=C(c1ccccc1F)N1CCN(C2c3ccccc3-c3ccccc32)CC1
[2]
  Kii: 0.332 µM
[1]
  IC50: 0.361 µM
[3]
  TDI: inactive
[4]
  Kis: 0.149 µM
[6]
  MIC: > 16.1 µM
[5]
  Kii: 0.66 µM

## Cc1ccc(C(=O)N2CCN(C3c4ccccc4-c4ccccc43)CC2)cc1
[1]
  IC50: 0.222 µM
[6]
  MIC: 67.8 µM (≈ 25 µg/mL)

## O=C(c1ccc([N+](=O)[O-])cc1)N1CCN(C2c3ccccc3-c3ccccc32)CC1
[1]
  IC50: > 50 µM

## O=S(=O)(c1ccccc1)N1CCN(C(c2ccccc2)c2ccccc2)CC1
[1]
  IC50: > 50 µM

## c1ccc(CN2CCN(C3c4ccccc4-c4ccccc43)CC2)cc1
[1]
  IC50: > 50 µM

## O=C(c1ccncc1)N1CCN(C2c3ccccc3-c3ccccc32)CC1
[1]
  IC50: 9.77 µM

## O=C(c1ccc(Cl)cc1)N1CCN(C(c2ccccc2)c2ccccc2)CC1
[1]
  IC50: > 50 µM

## O=C(c1ccc(F)cc1)N1CCN(C2c3ccccc3-c3ccccc32)CC1
[2]
  Kii: 0.348 µM
[1]
  IC50: 0.397 µM
[3]
  TDI: inactive
[6]
  MIC: 67.8 µM (≈ 25.3 µg/mL)
[7]
  Kis: 0.338 µM

## O=C(CN1CCN(C2c3ccccc3-c3ccccc32)CC1)Nc1ccccc1
[1]
  IC50: > 50 µM

## O=S(=O)(c1ccccc1)N1CCN(C2c3ccccc3-c3ccccc32)CC1
[1]
  IC50: 20 µM

## O=C(c1cc(F)ccc1F)N1CCN(C2c3ccccc3-c3ccccc32)CC1
[2]
  Kii: 1.28 µM
[1]
  IC50: 1.57 µM
[3]
  TDI: inactive
[4]
  Kis: 0.788 µM
[6]
  MIC: > 15.3 µM
[5]
  Kii: 3.25 µM

## O=C(c1ccccc1)N1CCN(C2c3ccccc3-c3ccccc32)CC1
[1]
  IC50: 0.183 µM
[6]
  MIC: > 35.2 µM

## O=C(c1cc(F)ccc1F)N1CCN(C(c2ccccc2)c2ccccc2)CC1
[1]
  IC50: > 50 µM

## COc1ccc(C(=O)N2CCN(C(c3ccccc3)c3ccccc3)CC2)cc1
[1]
  IC50: > 50 µM

## O=C(c1ccc(Cl)cc1)N1CCN(C2c3ccccc3-c3ccccc32)CC1
[2]
  Kii: 1.12 µM
[1]
  IC50: 1.69 µM
[3]
  TDI: inactive
[4]
  Kis: 2.77 µM
[5]
  Kii: 2 µM

## O=C(c1ccccc1)N1CCN(C(c2ccccc2)c2ccccc2)CC1
[1]
  IC50: 16 µM

## Cc1ccccc1C(=O)N1CCN(C2c3ccccc3-c3ccccc32)CC1
[1]
  IC50: 5.99 µM

## O=C(c1ccc(F)cc1)N1CCN(C(c2ccccc2)c2ccccc2)CC1
[1]
  IC50: > 50 µM

## Cc1ccccc1S(=O)(=O)N1CCN(C2c3ccccc3-c3ccccc32)CC1
[1]
  IC50: > 50 µM

## O=C(/C=C/c1ccccc1)N1CCN(C(c2ccccc2)c2ccccc2)CC1
[1]
  IC50: > 50 µM

## Cc1ccc(C(=O)N2CCN(C(c3ccccc3)c3ccccc3)CC2)cc1
[1]
  IC50: 7.83 µM
